The values below come from US20100119599A1 (ARCHER PHARMACEUTICALS, INC., priority 2006, published 2010).

Assay [1] relates to Aβ1-42. Briefly: Measurement of Aβ1-42 in culture medium of 7W WT APP751 CHO cells by ELISA. In kind it is cell-based, Chinese hamster. Conditions: Cricetulus griseus; Table 1; 5 μM test compound; CHO cells stably transfected with human APP751; culture medium, ELISA; control DMSO; 0 = no detectable amount; read-out: Aβ1-42 (% of control). (In general: An ELISA detects its analyte on a solid surface through an enzyme-linked reagent.)

Assay [2] concerns Aβ1-40. Briefly: Measurement of Aβ1-40 in culture medium of 7W WT APP751 CHO cells by ELISA. To be noted: Cricetulus griseus; Table 1; 5 μM test compound; CHO cells stably transfected with human APP751; culture medium, ELISA; control DMSO; 0 = no detectable amount. Format: cell-based, Chinese hamster.
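Also: 5 µM test compound but RI-coded compounds at 10 µM for 24 hours.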

Take `COCCOC(=O)C1=C(C)NC2=C(C(=O)CC(c3ccccc3)C2)C1c1ccc([N+](=O)[O-])cc1` (stereo not drawn) [ST017027, 2-methoxyethyl 2-methyl-4-(4-nitrophenyl)-5-oxo-7-phenyl-1,4,6,7,8-pentahydroquinoline-3-carboxylate]: the activity at 5 µM in assay [1] worked out at 82.1%; in assay [2], 35.1%.
For `CCOc1ccccc1C1C(C(=O)OCC(C)C)=C(C)NC2=C1C(=O)CC(c1ccc(Cl)cc1)C2` (stereo not drawn) [ST017038, 2-methyipropyl 7-(4-chlorophenyl)-4-(2-ethoxyphenyl)-2-methyl-5-oxo-1,4,6,7,8-pentahydroquinoline-3-carboxylate], in that order: 81.9% and 42.7%.
As to `COc1cc(Br)c(C2C(C#N)=C(C)NC3=C2C(=O)CC(c2ccc(Cl)cc2)C3)cc1OC` (stereo not drawn) [ST017045, 4-(2-bromo-4,5-dimethoxyphenyl)-7-(4-chlorophenyl)-2-methyl-5-oxo-1,4,6,7,8-pentahydroquinoline-3-carbonitrile], the activity at 5 µM in assay [1] was found to be 46%; in assay [2], 42.6%.
For `COc1cc(C2C(C(=O)OC3CCCCC3)=C(C)NC3=C2C(=O)CC(c2ccccc2)C3)cc(Cl)c1O` (stereo not drawn) [ST017050, cyclohexyl 4-(3-chloro-4-hydroxy-5-methoxyphenyl)-2-methyl-5-oxo-7-phenyl-1,4,6,7,8-pentahydroquinoline-3-carboxylate], in that order: 22.2% and 39.6%.
For `COc1ccc(COC(=O)C2=C(C)NC3=C(C(=O)CC(C)(C)C3)C2c2cc3c(cc2[NH+]([O-])O)OCO3)cc1` (stereo not drawn) [ST017054, (4-methoxyphenyl)methyl 2,7,7-trimethyl-4-(6-nitro(2H-benzo[d]1,3-dioxolan-5-yl))-5-oxo-1,4,6,7,8-pentahydroquinoline-3-carboxylate], the activity at 5 µM in assay [1] is 9.54%; in assay [2], 46.5%.
Regarding `CCOc1cc(C2C(C(=O)OCCOC)=C(C)NC3=C2C(=O)CC(c2ccccc2)C3)cc(Br)c1O` (stereo not drawn) [ST017060, 2-methoxyethyl4-(3-bromo-5-ethoxy-4-hydroxyphenyl)-2-methyl-5-oxo-7-phenyl-1,4,6,7,8-pentahydroquinoline-3-carboxylate], the figures for the activity at 5 µM in assay [1] and in assay [2] were 61.7% and 39%, respectively.
For `COc1ccc(C2CC(=O)C3=C(C2)NC(C)=C(C(=O)OC(C)C)C3c2ccc(F)cc2)cc1` (stereo not drawn) [ST017066, methylethyl 4-(4-fluorophenyl)-7-(4-methoxyphenyl)-2-methyl-5-oxo-1,4,6,7,8-pentahydroquinoline-3-carboxylate], in that order: 57.4% and 24.9%.
Regarding `CC1=C(C(=O)OCC(C)C)C(c2ccc(Cl)cc2)C2=C(CC(c3ccc(Cl)cc3)CC2=O)N1` (stereo not drawn) [ST017070, 2-methylpropyl 4,7-bis(4-chlorophenyl)-2-methyl-5-oxo-1,4,6,7,8-pentahydroquinoline-3-carboxylate], the activity at 5 µM in assay [1] came to 89.1%; in assay [2], 55.4%.
For `CCOC(=O)C1=C(C)NC2=C(C(=O)CC(c3ccc(OC)cc3)C2)C1c1ccc(OCc2ccccc2)cc1` (stereo not drawn) [ST017078, ethyl 7-(4-methoxyphenyl)-2-methyl-5-oxo-4-[4-(phenylmethoxy)phenyl]-1,4,6,7,8-pentahydroquinoline-3-carboxylate], in that order: 49.4% and 51.8%.
In the case of `CC1=C(C(=O)OCCOc2ccccc2)C(c2ccncc2)C2=C(CC(c3ccccc3)CC2=O)N1` (stereo not drawn) [ST017084, 2-phenoxyethyl 2-methyl-5-oxo-7-phenyl-4-(4-pyridyl)-1,4,6,7,8-pentahydroquinoline-3-carboxylate], the values for the activity at 5 µM in assay [1] and in assay [2] were 84.7% and 54.3%, respectively.
As for `CCC(C)OC(=O)C1=C(C)NC2=C(C(=O)CC(c3ccc(Cl)cc3)C2)C1c1ccc(Cl)cc1` (stereo not drawn) [ST017089, methylpropyl 4,7-bis(4-chlorophenyl)-2-methyl-5-oxo-1,4,6,7,8-pentahydroquinoline-3-carboxylate], the activity at 5 µM in assay [1] was 82.5%; in assay [2], 26.9%.
For `CCC(C)OC(=O)C1=C(C)NC2=C(C(=O)CC(c3ccc(Cl)cc3)C2)C1c1cc(OC)c(OC)c(OC)c1` (stereo not drawn) [ST017091, methylpropyl 7-(4-chlorophenyl)-2-methyl-5-oxo-4-(3,4,5-trimethoxyphenyl)-1,4,6,7,8-pentahydroquinoline-3-carboxylate], in that order: 91% and 65.7%.
For `CCc1ccc(C2C(C(=O)OC(C)CC)=C(C)NC3=C2C(=O)CC(c2ccc(OC)cc2)C3)cc1` (stereo not drawn) [ST017092, methylpropyl 4-(4-ethylphenyl)-7-(4-methoxyphenyl)-2-methyl-5-oxo-1,4,6,7,8-pentahydroquinoline-3-carboxylate], in that order: 30.9% and 41.3%.
For `CCCOc1ccc(C2C(C(=O)OC(C)CC)=C(C)NC3=C2C(=O)CC(c2ccc(Cl)cc2)C3)cc1` (stereo not drawn) [ST017093, methylpropyl 7-(4-chlorophenyl)-2-methyl-5-oxo-4-(4-propoxyphenyl)-1,4,6,7,8-pentahydroquinoline-3-carboxylate], in that order: 95% and 46.8%.
In the case of `COCCOC(=O)C1=C(C)NC2=C(C(=O)CC(c3ccc(OC)cc3)C2)C1c1ccc2c(c1)OCO2` (stereo not drawn) [ST017094, 2-methoxyethyl 4-(2H-benzo[3,4-d]1,3-dioxolen-5-yl)-7-(4-methoxyphenyl)-2-methyl-5-oxo-1,4,6,7,8-pentahydroquinoline-3-carboxylate], the figures for the activity at 5 µM in assay [1] and in assay [2] were 73.8% and 68.9%, respectively.
Take `CCC(C)OC(=O)C1=C(C)NC2=C(C(=O)CC(c3ccc(Cl)cc3)C2)C1c1ccc(Cl)c(Cl)c1` (stereo not drawn) [ST017095, methylpropyl 4-(3,4-dichlorophenyl)-7-(4-chlorophenyl)-2-methyl-5-oxo-1,4,6,7,8-pentahydroquinoline-3-carboxylate]: the activity at 5 µM in assay [1] was 37.1%; in assay [2] it was 61.3%.
For `COCCOC(=O)C1=C(C)NC2=C(C(=O)CC(c3ccc(OC)cc3)C2)C1c1cccc(OC)c1` (stereo not drawn) [ST017097, 2-methoxyethyl 4-(3-methoxyphenyl)-7-(4-methoxyphenyl)-2-methyl-5-oxo-1,4,6,7,8-pentahydroquinoline-3-carboxylate], in that order: 80.9% and 68.2%.
For `COCCOC(=O)C1=C(C)NC2=C(C(=O)CC(c3ccc(OC)cc3)C2)C1c1ccc(Br)cc1` (stereo not drawn) [ST017099, 2-methoxyethyl 4-(4-bromophenyl)-7-(4-methoxyphenyl)-2-methyl-5-oxo-1,4,6,7,8-pentahydroquinoline-3-carboxylate], in that order: 57% and 84.5%.
For `CCSCCOC(=O)C1=C(C)NC2=C(C(=O)CCC2)C1c1ccc(C(=O)OC)cc1` (stereo not drawn) [ST017106, methyl 4-{3-[(2-ethylthioethyl)oxycarbonyl]-2-methyl-5-oxo-4-1,4,6,7,8-pentahydroquinolyl}benzoate], in that order: 0% and 36.8%.
`CCSCCOC(=O)C1=C(C)NC2=C(C(=O)CCC2)C1c1ccc(OCCO)c(OC)c1` (stereo not drawn) [ST017113, 2-ethylthioethyl 4-[4-(2-hydroxyethoxy)-3-methoxyphenyl]-2-methyl-5-oxo-1,4,6,7,8-pentahydroquinoline-3-carboxylate]: the values for the activity at 5 µM in assay [1] and in assay [2] were 74.1% and 82.6%, respectively.
For `CCCOc1ccc(C2C(C(=O)OCCSCC)=C(C)NC3=C2C(=O)CC(C)(C)C3)cc1OC` (stereo not drawn) [ST017116, 2-ethylthioethyl 4-(3-methoxy-4-propoxyphenyl)-2,7,7-trimethyl-5-oxo-1,4,6,7,8-pentahydroquinoline-3-carboxylate], in that order: 43% and 43.5%.
On to `CCOc1cc(C2C(C(=O)OCC(C)C)=C(C)NC3=C2C(=O)CC(c2ccc(Cl)cc2)C3)ccc1O` (stereo not drawn) [ST017117, 2-methylpropyl 7-(4-chlorophenyl)-4-(3-ethoxy-4-hydroxyphenyl)-2-methyl-5-oxo-1,4,6,7,8-pentahydroquinoline-3-carboxylate], for which the activity at 5 µM came to 81.7% in assay [1] and 25.7% in assay [2].
For `COc1ccc(C2CC(=O)C3=C(C2)NC(C)=C(C(=O)OCc2ccccc2)C3c2ccc3c(c2)OCO3)cc1` (stereo not drawn) [ST017133, phenylmethyl 4-(2H-benzo[3,4-d]1,3-dioxolen-5-yl)-7-(4-methoxyphenyl)-2-methyl-5-oxo-1,4,6,7,8-pentahydroquinoline-3-carboxylate], in that order: 79.2% and 39.2%.
For `CCOC(=O)C1=C(C)NC2=C(C(=O)CC(c3ccc(OC)cc3)C2)C1c1ccc(OC)cc1` (stereo not drawn) [ST017136, ethyl 4,7-bis(4-methoxyphenyl)-2-methyl-5-oxo-1,4,6,7,8-pentahydroquinoline-3-carboxylate], in that order: 66.1% and 87.7%.
For `CCOC(=O)C1=C(C)NC2=C(C(=O)CC(c3ccc(OC)cc3)C2)C1c1cccc(Cl)c1` (stereo not drawn) [ST017144, ethyl 4-(3-chlorophenyl)-7-(4-methoxyphenyl)-2-methyl-5-oxo-1,4,6,7,8-pentahydroquinoline-3-carboxylate], in that order: 55.6% and 23.4%.
As for `CCCCOC(=O)C1=C(C)NC2=C(C(=O)CCC2)C1c1ccc(Br)cc1` (stereo not drawn) [ST017167, butyl 4-(4-bromophenyl)-2-methyl-5-oxo-1,4,6,7,8-pentahydroquinoline-3-carboxylate], the figures for the activity at 5 µM in assay [1] and in assay [2] were 50.5% and 79%, respectively.
For `CC1=C(C(=O)OC2CCCCC2)C(c2ccc(Br)cc2)C2=C(CCCC2=O)N1` (stereo not drawn) [ST017170, cyclohexyl 4-(4-bromophenyl)-2-methyl-5-oxo-1,4,6,7,8-pentahydroquinoline-3-carboxylate], in that order: 1.38% and 3.47%.
